Patent US20230130102A1, “Na/K-ATPase LIGANDS AND USE THEREOF FOR TREATMENT OF CANCER” (Marshall University Research Corporation, priority 2019, published 2023)
Where “and” joins values, the source holds several entries; their conditions need not be identical. Equal entries are not always repeated. Entries after “also recorded” stand apart in the source; their conditions may differ.

Experiments:
PC3 cells = assay: Spheroid aggregation in ultralow attachment plates, PC3; assay type: cell-based, human
Experimental: Spheroid aggregation in ultralow attachment plates. 5000 cells were plated in a 6 well ultralow attachment plate from Corning and allowed to form spheroids spontaneously for a week. Cell aggregates were then immunostained for E-cadherin expression using a monoclonal anti-E-cadherin antibody (Santacruz Biotechnology, Catalogue No.sc-71008), followed by Alexa-Fluor 488 anti-mouse secondary antibody (Thermo-Fisher).

purified pig kidney NKA = target: T1, purified pig kidney NKA (Sus scrofa, UniProt P05024); assay: Na/K-ATPase (ATPase) activity assay; assay type: biochemical
T1 construct: Na/K-ATPase activity assay of MB5 with purified pig kidney enzyme; from tissue; host or cells: pig kidney
Experimental: It is appreciated that ouabain induces Src/ERK activation (increased protein phosphorylation) of LLC-PK1 cells by binding to α1 NKA and thereby initiates a signaling cascade which results in the endocytosis of the α1 NKA to terminate the signaling.
ATPase activity assay. ATPase activity assay was performed as previously described.
As archetypal agonists of NKA receptor function, ouabain and other CTS stimulate cellular signaling by activating α1 NKA/Src signalosome complex, which results in its endocytosis. It was reasoned that compounds that inhibit CTS induced signaling could function as inverse agonists of this signalosome complex and prevent α1 NKA endocytosis. A group of hydroxyxanthones were thus tested that were identified as a new class of Na/K-ATPase ligands using a high throughput in vitro screening platform and a library of 2600 structurally diverse chemicals.

P450 enzymes = assay: metabolism by P450 enzymes; assay type: in vitro ADME
[1] = test system: subclone 5 spheroids (DU145 derived); assay: 3D culture spheroid growth, subclone 5; assay type: cell-based, human; conditions: subclone 5 spheroids in 3D culture
Experimental: 3D culture-spheroid invasion assay. Cells were trypsinized gently (0.05% Trypsin-EDTA) and diluted at 1000 cells in 20 μl of full serum media for DU145 and C4-2 derived sub-clones or 500 cells in 20 ul for PC3 cells and allowed to form spheroids using hanging drop technique for 3 days, as described previously. Generated spheroids were then embedded into 3D matrix (not yet solidified at the time of experiment), as described in the previous section, on top of a 1% solidified agarose coating in 48 well plates. Spheroids were monitored from day 1 to different time points and images were taken using a phase contrast microscope fitted with camera, at same settings. Spheroid growth or invasion area was quantified using ImageJ software from NIH. The following formulas were used for quantitation of spheroids:
Spheroid growth=(Spheroid area at Day 3 or 7-Spheroid area at 16 hours)/Spheroid area at 16 hours
For drug treatment, compound was diluted into media, from stock solution. For MMP secretion, conditioned media for 3 days were collected from top of matrix and assessed for MMP secretion by Western blot using Matrix Remodeling Antibody Sampler kit from Cell Signaling Technology (Cat #73959).

[2] = pharmacokinetic (PK) and toxicity study in a mouse model; assay type: in vivo
PY17 cells = assay: basal ERK phosphorylation in PY17 cells; assay type: cell-based, pig
Experimental: Western blot, Immunoprecipitation and Immunostaining. Cells were grown to 100% confluency and Western blot were performed as described before. Images were quantified with ImageJ software from NIH. Immunoprecipitation studies were performed as described before. α1 NKA immunostaining was performed by growing cells on sterilized coverslips in 6 well tissue culture plates and permeabilization/fixation with ice-cold methanol followed by blocking with 5% horse serum and 0.1% Triton X-100 in 1× Phosphate buffered saline (PBS) for 30 minutes. Coverslips were then stained with an anti-α1 NKA antibody (Millipore, Cat #05-369) at 1:100 dilution in 1% BSA (Bovine Serum Albumin) containing 1×PBS solution for overnight. Next day after three washes, coverslips were stained with Alexa Fluor 488 conjugated anti-mouse secondary antibody (Thermo-Fisher) for 1 hour, washed extensively and then imaged using a fluorescent microscope with GFP filter or confocal microscope (LEICA-DMIRE2). E-cadherin and occludin immunostaining was performed in a similar manner. Phospho-Src, phospho ERK1/2 immunostaining were performed as described before and images were taken with a LEICA DMIRE2 confocal microscope. […]

DU145 derived subclones = assay: Western blot / immunostaining of EMT markers, Src/FAK activation and proliferation markers in DU145 derived subclones; assay type: cell-based, human; conditions: for expression of PCNA: 72 hours
Experimental: Western blot, Immunoprecipitation and Immunostaining. Cells were grown to 100% confluency and Western blot were performed as described before. Images were quantified with ImageJ software from NIH. Immunoprecipitation studies were performed as described before. α1 NKA immunostaining was performed by growing cells on sterilized coverslips in 6 well tissue culture plates and permeabilization/fixation with ice-cold methanol followed by blocking with 5% horse serum and 0.1% Triton X-100 in 1× Phosphate buffered saline (PBS) for 30 minutes. Coverslips were then stained with an anti-α1 NKA antibody (Millipore, Cat #05-369) at 1:100 dilution in 1% BSA (Bovine Serum Albumin) containing 1×PBS solution for overnight. Next day after three washes, coverslips were stained with Alexa Fluor 488 conjugated anti-mouse secondary antibody (Thermo-Fisher) for 1 hour, washed extensively and then imaged using a fluorescent microscope with GFP filter or confocal microscope (LEICA-DMIRE2). E-cadherin and occludin immunostaining was performed in a similar manner. Phospho-Src, phospho ERK1/2 immunostaining were performed as described before and images were taken with a LEICA DMIRE2 confocal microscope.
Next, it was tested whether MB5 as an inverse agonist of NKA receptor function could reverse EMT and stop invasion of PCa cells by rescuing α1 NKA expression in PCa. Subclone 5 and 2 cells were exposed to a long term treatment (0, 24, 48 and 72 hours) with 100 nM MB5.

KD cells from C4-2 = assay: Western blot of EMT phenotype in α1 KD cells derived from C4-2; assay type: cell-based, human; conditions: KD cells from C4-2, 1 μM
Experimental: Cell lines. DU145, PC3 and C4-2 cell lines were purchased from and maintained according to ATCC recommendations. Parental DU145 and derived cell lines were cultured in high glucose […] supplemented with 10% Fetal Bovine Serum and 1% Penicillin/Streptomycin in 37° c. humidified incubator with 5% C02. LLC-PK1, PY17, Y260A, A425P and YFP-α1TCN cells were cultured in the same media and under similar conditions. PC3 and C4-2 cell lines were cultured in RPMI medium with similar conditions as described above. α1 knockdown KD cells were generated from DU145 and C4-2 using a α1 NKA-specific siRNA, as previously described. Knockdown was verified by both qPCR and Western blot analyses. Rat α1 NKA rescued cell lines were generated by transfecting KD cells with a pRC/CMV-α1 AACm1 vector followed by selection with ouabain (2 μM), as previously described. Cells were passaged for three generations without ouabain before conducting experiments.
Western blot, Immunoprecipitation and Immunostaining. Cells were grown to 100% confluency and Western blot were performed as described before. Images were quantified with ImageJ software from NIH. […]

[3] = Western blot, 100 nM, up to 72 hours

O=c1c2cccc(O)c2oc2c(O)c(O)ccc12 [MB5]
cell aggregation (PC3 cells; PC3, ultralow attachment plates): increased cell aggregation in a concentration-dependent manner | E-cadherin expression (PC3 cells; PC3 aggregates, immunostaining): significantly increased E-cadherin expression | inhibition of NKA activity (purified pig kidney NKA; about 1 nM to 100 nM): ~25% | high affinity component, share of Na/K-ATPase activity (purified pig kidney NKA; biphasic NKA inhibition curve): 20% | IC50 (purified pig kidney NKA; purified pig kidney enzyme, low affinity component of biphasic curve): ~10 µM and 10 µM | inhibition of NKA activity (purified pig kidney NKA; ~10 μM): ~50% | metabolism by P450 enzymes (P450 enzymes): not metabolized significantly | spheroid size [1]: significantly reduced the size of subclone 5 spheroids | systemic exposure level versus dose ([2]; 50-200 mg/kg after oral administration): proportional to dose level | toxic effects ([2]; after more than 1 month of administration): No detectable toxic effects | removal by secondary metabolism ([2]; most likely by UGT enzymes): quickly removed by secondary metabolism | toxicity ([2]; mouse, in vivo): quite non-toxic | basal ERK phosphorylation (PY17 cells): inhibited ERK phosphorylation in a dose-dependent manner | Src, FAK activation and Myc expression (DU145 derived subclones; 100 nM, subclones 5 and 2): significant decrease | expression of mesenchymal markers (SNAIL, ZEB1) (DU145 derived subclones; [3]): downregulating; also recorded: decreased expression of mesenchymal markers | α1 NKA and E-cadherin expression (DU145 derived subclones; [3]): increasing; also recorded: significant time-dependent increase; also recorded: increased α1 NKA and E-cadherin expression | expression of PCNA (DU145 derived subclones; subclone 2, 100 nM): significantly reduced | expression of PCNA (DU145 derived subclones; subclone 5, 100 nM): abolished | expression of SNAIL, SLUG and Myc (KD cells from C4-2): inhibiting the expression of SNAIL, SLUG and Myc | occludin and E-cadherin expression (KD cells from C4-2): upregulate occludin and E-cadherin expression
